This note sets out measurements from patent publication US4004008A, “O-Tertiary amino-alkyl-N-benzoyl tyrosil amides” (priority 1974, dated 1977).

Values after ≈ are worked out from the molar mass of the structure shown.

The test system of data set [1] is cavy ileum (histamine spasm). The data set can be described thus: Antispastic activity in vitro on cavy ileum, spasmiser histamine. The format is cell-based. To be noted: Table 2; ED50 ratio. As for the experimental part: (§1) C. The method in vitro is that of Magnus, with the ileum of the cavy, and is in common use for all evaluations. It consists of extracting the ileum from the cavy and placing it in a receptacle which contains nutritive liquid, suitably oxygenated, and registering the movements of the organ which remains alive for several hours if maintained at a temperature of 37°. According to the traditional method followed by us, BaCl2 is put into the bath as a spasmisant: the reaction is a violent contraction of the organ. This contraction can be prevented by adding beforehand pharmaceuticals which inhibit spasms, and in this case our compounds.
(§2) The activities which have been described so far both in vitro and in vivo can be confirmed using different animals or different organs. These activities are further improved if, instead of BaCl2 other spasmisers are used, such as serotoninehistamine and oxytocine (see Table 2).
(§3) The values contained in the table are expressed as comparison between the
(§4) substance being studied, and they therefore express the activity of the
(§5) compounds compared with known, very active substances.

For another data set, the system named is stomach and pylorus. The data set can be described thus: Perfusion outflow of stomach and pylorus (gastro-pyloric spasm by morphine). The data set is classed as in vivo. To be noted: i.v.; CR 605 5, CR 725 10, CR 603 12.5 mg/kg; morphine 250 μg.
The test system of data set [2] is intestinal transit of the charcoal. The data set can be described thus: Vegetable carbon (charcoal) intestinal transit test in vivo. Also noted: species or system rat. To be noted: i.v., rat, charcoal test, 2 hours. The method in brief: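 Rats fasted 24 h received 0.3 ml oral charcoal/gum arabic suspension together with test substance (i.v., s.c. or oral). Killed at 2 h; animals scored positive when charcoal had not reached the first portion of the colon. ED50 derived from this test.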

The subject of data set [3] is ileum of a cavy (BaCl2 spasm). Kind of data set: Antispastic activity in vitro, Magnus method, cavy ileum stimulated with BaCl2. The format is cell-based. To be noted: for Antisp. activity in vitro on the ileum of a cavy by Stim. BaCl2: ED50 pap./ED50 CR: ratio to papaverine = 1, Table 1, 37°. A digest of the protocol: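 Isolated guinea-pig ileum in oxygenated nutritive bath at 37°, compound added beforehand to block BaCl2-induced contraction (Magnus method). ED50 is the dose halving spastic contraction; values expressed as ratio to papaverine.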

A short description of data set [4]: Acute toxicity (DL50) i.v. in rat. The format is in vivo. The conditions noted are these: in vivo, iv, dose causing death in 50% of the animals. The method in brief:
(§6)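 Rat acute toxicity given intravenously; DL50 is the dose in mg/kg body weight that kills 50% of treated animals.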

Data set [5] concerns caudal artery of a rat (ergotamine tartrate contraction). Kind of data set: Antispastic activity on caudal artery of rat stimulated with ergotamine tartrate. The data set is classed as cell-based. The conditions noted are these: ergotamine tartrate 350 μg/ml of perfusion liquid, 50% reduction of contraction. Here is the method: An in vitro evaluation of this activity was made upon the caudal artery of a rat, suspended, so that one can register the variation of internal pressure, and contracted with ergotamine tartrate put in to the arterial lumen of the said vessel with a dose of 350 μg/ml of perfusion liquid.
The spasm was antagonised with the compounds being tested. The evaluation was made with ED50, i.e., a concentration of the product in the perfusion liquid expressed as μg/ml able to reduce the contraction thus induced by 50%.
Antispastic activity of some of the claimed compounds upon the caudal artery of a rat stimulated with ergotamine tartrate: values are expressed in ED50 (see specification).

For data set [6], the system named is rat uterus (oxytocine spasm). Kind of data set: Antispastic activity in vitro on rat uterus, spasmiser oxytocine. The data set is classed as cell-based. To be noted: Table 2; ED50 ratio.
Excerpt: as §2, §3, §4, §5

The test system of the next data set is rat's ureter. The data set can be described thus: Ureter of rat in vitro. The format is cell-based. The conditions noted are these: Rattus norvegicus; read-out: Ureter of rat in vitro ED50. The source says:
The in vitro evaluation was made on a rat's ureter suspended in a bath of physiological liquid according to a method similar to the Magnus method already described.

The subject of data set [7] is caudal artery of a rat (electric stimulation). The data set can be described thus: Antispastic activity on caudal artery of rat, electrically stimulated. The data set is classed as cell-based. To be noted: 50% reduction of response to electric stimulation. As for the experimental part:
In another experiment the caudal artery of a rat was electrically stimulated and the pharmaceuticals were added to the bath. The activity was assessed at ED50, i.e., the quantity of pharmaceutical expressed in μg/ml of the perfusion liquid able to reduce by half the response of the electric stimulation compared with that of the checks.
Antispastic activity of some of the compounds claimed on the caudal artery of a rat, electrically stimulated: the values are expressed in ED50 (see Specification).

For data set [8], the system named is cavy ileum (serotonine spasm). The data set can be described thus: Antispastic activity in vitro on cavy ileum, spasmiser serotonine. The data set is classed as cell-based. To be noted: Table 2; ED50 ratio. As for the experimental part: as §1, §2, §3, §4, §5
In another data set the test system is urinary bladder of a rat. Kind of data set: Urinary bladder movement of anaesthetised rat in vivo. To be noted: intravenous, anaesthetised rat; read-out: Urinary sac of rat in vivo ED50. The text has this: The in vivo evaluation was made upon the urinary bladder of a rat anaesthetised and placed in an environment heated to the animals body temperature whilst the bladder which is exposed is linked to a system which registers its movement. The pharmaceutilcals were given to the animals by intravenous means.

Data set [9] concerns bile ducts (sphincter of Oddi). The data set can be described thus: Perfusion outflow of bile ducts (bile duct spasm by morphine). The data set is classed as in vivo. To be noted: i.v.; CR 605 5, CR 725 10, CR 603 12.5 mg/kg; morphine 250 μg.
Excerpt: (§7) The results shown in this table were obtained by perfusing with a physiological solution, the stomach and the bile ducts respectively and collecting the liquid emerging after the pylorus and the sphineter of Oddi.
Another data set has as its system rat. Kind of data set: Acute toxicity (DL50) i.v. in rat. The format is in vivo. The conditions noted are these: dose causing death in 50% of the animals. The method in brief:
as §6

Excerpt for stomach and pylorus: as §7

Usually ED50 stands for the dose that gives a 50% effect, or the effect in half of the subjects. Broadly, the LD50 is the dose expected to kill half of the subjects tested. A low value points to greater toxicity. Take `CCCN(CCC)C(=O)C(Cc1ccc(OCCN(C)C)cc1)NC(=O)OCc1ccccc1` [CR 603, O-(2-dimethylamino-ethyl)-N-carbobenzoxy-L-tyrosil-di-n-propylamide]: the “Antispastic activity in vitro, cavy ileum, histamine (relative to prometazine = 1)” value in data set [1] is 0.09. The “Stomach and pylorus, outflow after the 1st hour” value in the data set on stomach and pylorus came out at 157.0 mL. For the same molecule, in the data set with stomach and pylorus, the “Stomach and pylorus, outflow after the 2nd hour” value worked out at 160.8 mL. The ED50 in [2] (Rattus norvegicus, iv, 2 h, read-out: Antisp. activity in transit test: ED50) was determined as 30.5 mg/kg; in the data set on urinary bladder of a rat, 6.9 mg/kg. Further, the “Antispastic activity in vitro, cavy ileum, BaCl2 (relative to papaverine = 1)” value in data set [3] (Table 2, ED50 of test substance papaverine / ED50 of compound) is listed as 2.4. In addition, the “Antisp. activity in vitro on the ileum of a cavy by Stim. BaCl2: ED50 pap./ED50 CR” value in [3] is on record as 2.40. For the same molecule, the median lethal dose (LD50) in data set [4] is 63 mg/kg. Further, the IC50 was 105 µg/mL (≈ 224 µM) in data set [5] (Rattus norvegicus, read-out: ED50, caudal artery, ergotamine tartrate); 86 µg/mL (≈ 183 µM) in the data set with rat's ureter; 76 µg/mL (≈ 162 µM) in data set [7] (Rattus norvegicus, read-out: ED50, caudal artery, electrically stimulated). In data set [6], the “Antispastic activity in vitro, rat uterus, oxytocine (relative to papaverine = 1)” value is 0.008. For the same molecule, the “Antispastic activity in vitro, cavy ileum, serotonine (relative to methysergide = 1)” value in data set [8] turned out to be 0.87. Also, the “Bile ducts, outflow after the 1st hour” value in data set [9] was 50.3 mL. Also, the “Bile ducts, outflow after the 2nd hour” value in [9] was found to be 48.8 mL.

As to `CCCN(CCC)C(=O)C(Cc1ccc(OCCCN(C)C)cc1)NC(=O)c1ccccc1` (racemic) [CR 816, O-(3-dimethylamino-propyl)-N-benzoyl-DL-tyrosil-di-n-propylamide], the “Antisp. activity in transit test: ED50” value in data set [2] (120 min) is 5.5 mg/kg. Moreover, the “Antisp. activity in vitro on the ileum of a cavy by Stim. BaCl2: ED50 pap./ED50 CR” value in [3] is reported as 2.00. For the same molecule, in the data set with rat, the “DL50 in a rat” value came to 16.0 mg/kg. For the same molecule, in [5], the “ED50, caudal artery, ergotamine tartrate” value came out at 12 µg/mL (≈ 26.5 µM). Further, the “ED50, caudal artery, electrically stimulated” value in data set [7] is 7 µg/mL (≈ 15.4 µM).
